Molecules are shown by their SMILES.

Experimental findings from paper PMC2775811 (The Journal of neuroscience : the official journal of the …, 2009) are described below.

One assay concerns the target Hsp70 (Homo sapiens, UniProt P0DMV8). Briefly: malachite green ATPase assay, 8-point dose dependence. The assay is classed as biochemical.
A further assay has as its target Hsc70 (Homo sapiens, UniProt P11142). The assay can be described thus: […]-1H HSQC-TROSY NMR titration, […]-labelled apo-Hsc70. Type of assay: binding.

The compound `CNc1ccc2nc3ccc(N)cc3[s+]c2c1` [AC, azure C] displayed an IC50 at Hsp70 of 11 µM.

As to `CN(C)c1ccc2nc3ccc(=[N+](C)C)cc-3sc2c1` [MB, methylene blue], on Hsp70, the IC50 amounted to 83 µM. Further, the Kd at Hsc70 is about 1 µM. The compound `O=c1c(O)c(-c2cc(O)c(O)c(O)c2)oc2cc(O)cc(O)c12` [MY, myricetin] displayed an IC50 on Hsp70 of 12 µM.

Usually IC50 stands for the concentration at which inhibition is half-maximal. Low readings indicate greater potency, high ones weaker potency. As a reminder, the Kd is the concentration at which binding is half-saturated.
